Data published in paper PMC10073475, “Effect of mTOR inhibitors on sodium taurocholate cotransporting polypeptide (NTCP) function in vitro” (Frontiers in Pharmacology, 2023).

How the values were obtained:
[1] = target: T1, sodium taurocholate cotransporting polypeptide (NTCP) (Homo sapiens, UniProt Q14973); assay: [3H]-taurocholate uptake inhibition at […] in NTCP-GFP Flp-In T-REx […] and differentiated HuH-7 cells; type: cell-based
T1 construct: gene SLC10A1; GFP-tagged human NTCP (NM_003049)
T1 sequence (Q14973 1-349): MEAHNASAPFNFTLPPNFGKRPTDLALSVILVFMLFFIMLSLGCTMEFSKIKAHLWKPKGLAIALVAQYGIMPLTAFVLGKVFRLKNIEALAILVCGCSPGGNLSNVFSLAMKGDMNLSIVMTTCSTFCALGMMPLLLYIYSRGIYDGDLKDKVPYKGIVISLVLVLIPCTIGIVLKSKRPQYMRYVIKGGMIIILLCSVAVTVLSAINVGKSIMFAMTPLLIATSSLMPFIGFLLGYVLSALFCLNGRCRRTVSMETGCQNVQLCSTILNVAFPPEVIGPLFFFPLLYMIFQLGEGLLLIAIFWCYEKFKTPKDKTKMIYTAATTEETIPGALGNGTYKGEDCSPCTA

[2] = target: T1, sodium taurocholate cotransporting polypeptide (NTCP); assay: [3H]-taurocholate uptake inhibition in NTCP-GFP Flp-In T-REx […] cells (IC50 […] in differentiated HuH-7); type: cell-based

Structure (SMILES) | [3H]-taurocholate uptake inhibition at 10 μM in NTCP-GFP Flp-In T-REx 293 and di [1] | IC50 [2] [µM]
CO[C@H]1C[C@@H]2CC[C@@H](C)[C@@](O)(O2)C(=O)C(=O)N2CCCC[C@H]2C(=O)O[C@H]([C@H](C)C[C@@H]2CC[C@@H](OC(=O)C(C)(CO)CO)[C@H](OC)C2)CC(=O)[C@H](C)/C=C(\C)[C@@H](O)[C@@H](OC)C(=O)[C@H](C)C[C@H](C)/C=C/C=C/C=C/1C [temsirolimus] | everolimus, sirolimus and temsirolimus significantly inhibited TCA accumulation in Na^+-containing ECF buffer and NTCP-mediated TCA accumulation | –
CO[C@H]1C[C@@H]2CC[C@@H](C)[C@@](O)(O2)C(=O)C(=O)N2CCCC[C@H]2C(=O)O[C@H]([C@H](C)C[C@@H]2CC[C@@H](OCCO)[C@H](OC)C2)CC(=O)[C@H](C)/C=C(\C)[C@@H](O)[C@@H](OC)C(=O)[C@H](C)C[C@H](C)/C=C/C=C/C=C/1C [everolimus] | – | 6.7 ± 1.3
